The values below come from publication PMC8507260, “A2E-induced inflammation and angiogenesis in RPE cells in vitro are modulated by PPAR-α, -β/δ, -γ, and RXR antagonists and by norbixin” (Aging (Albany NY), 2021).

One experiment relates to PPAR. Put plainly: Endogenous PPAR transactivation, luciferase reporter in primary porcine RPE cells. Type of experiment: cell-based. The procedure:
(§1) Pig eyes were obtained from a local slaughterhouse and transported to the laboratory in ice-cold Ringer solution. After removal of the anterior segment of the eye, the vitreous and neural retina was separated from the RPE and removed. The eyecup was washed twice with phosphate buffer saline (PBS), filled with trypsin (0.25% in PBS) and incubated at 37°C for 1.5 h. RPE cells were harvested by gently pipetting, centrifuged to remove trypsin and re-suspended in Dulbecco’s Modified Eagle Medium (DMEM) supplemented with 20% (v/v) foetal-calf serum (DMEM20%FCS) and 0.1% gentamycin. Cells were seeded into 60 mm diameter Petri dishes, cultured in an atmosphere of 5% CO2/95% air at 37°C, and supplied with fresh medium after 24 hours and 4 days in vitro. For experiments aimed at measuring mRNA or protein expression in RPE, cells were trypsinized after one week in culture and transferred to 24-well or 6-well plates at a density of 1.5 × 10^5 cells/cm^2 in DMEM2%FCS. Norbixin or agonists were added to the medium 24 h after seeding, and antagonists were added to the medium 24 h later. A2E treatment was performed during 19 h before cellular sample preparation. All the drugs used in these experiments were prepared as stock solutions in DMSO.
(§2) After one week in culture, cells were trypsinized and transferred to a 96-well plate at a density of 6 × 10^4 cells/cm^2 in DMEM2%FCS. The next day, cells were transfected using the Cignal Reporter Assay Kits for PPAR, RXR, AP-1 and NF-κB, according to the manufacturer’s specifications. To measure the specific activation of PPAR isoforms, cells were also co-transfected with PPAR-α, PPAR-β/δ or PPAR-γ expression vectors. Transfection was performed with Lipofectamine and Plus Reagent in serum-free medium. 3 h after the transfection, the medium was replaced and treatments with the molecules to assay were performed. Luciferase activity was measured the next day using the Dual-Luciferase Reporter Assay System. The measurements were performed with a luminometer (Infinite M1000 from Tecan, Mannedorf, Switzerland). Firefly: Renilla activity ratios were calculated for each condition and ratios from transcription factor-responsive reporter transfections were divided by ratios from negative control transfections to obtain relative luciferase unit, as described by the manufacturer. At least 3 independent transfections were performed in triplicate for each condition.
On the technique in general: Reporter assays use an easily measured gene product as a stand-in for the process of interest.

A further experiment concerns AP-1. Put plainly: AP-1 transactivation, luciferase reporter in porcine RPE cells. Type of experiment: cell-based. The procedure: as §1
as §2, with “Transfection was performed with Lipofectamine and Plus Reagent in serum-free medium. 3 h after the transfection, the medium was replaced and treatments with the molecules to assay were performed.” left out, “The measurements were performed with a luminometer (Infinite M1000 from Tecan, Mannedorf, Switzerland).” left out, “At least 3 independent transfections were performed in triplicate for each condition.” left out

Another experiment has as its system IL-8. Put plainly: IL-8 mRNA expression by quantitative RT-PCR in porcine RPE cells. Type of experiment: cell-based. The procedure:
as §1
(§3) Total RNA was extracted using the NucleoSpin® RNA kit according to manufacturer’s instructions. RT of 500 ng of RNA was performed using the SuperScript III Reverse Transcriptase following the manufacturer’s instructions. Five ng of cDNA were amplified using the SYBR GREEN real-time PCR method. PCR primers for target genes and housekeeping gene GAPDH were designed using Primer3Plus Bioinformatic software (Table 2). The RT-PCR using the StepOne Plus (Life Technologies, Carlsbad, CA, USA) consisted of incubation at 50°C for 5 min followed by 40 cycles of 95°C for 15 s and of 60°C for 1 min. The reaction was completed by a melt curve stage at 95°C for 15 s, 60°C for 1 min, 95°C for 15 s and a final step at 60°C for 15 s. The relative mRNA expression was calculated using the comparative threshold method (Ct-method) with GAPDH for normalization. All experimental conditions were processed in triplicate and each experiment was done at least 3 times.

The test system of a further experiment is CCL2. Put plainly: CCL2 mRNA expression by quantitative RT-PCR in porcine RPE cells. Type of experiment: cell-based. The procedure:
as §1, with “All the drugs used in these experiments were prepared as stock solutions in DMSO.” left out
(§4) Total RNA was extracted using the NucleoSpin® RNA kit according to manufacturer’s instructions. […] The relative mRNA expression was calculated using the comparative threshold method (Ct-method) with GAPDH for normalization. […]

The next experiment deals with VEGF. Put plainly: VEGF mRNA expression by quantitative RT-PCR in porcine RPE cells. Type of experiment: cell-based. The procedure:
as §1
as §3, with “All experimental conditions were processed in triplicate and each experiment was done at least 3 times.” left out

Another experiment relates to MMP9. Put plainly: MMP9 mRNA expression by quantitative RT-PCR in porcine RPE cells. Type of experiment: cell-based. The procedure: as §1, with “All the drugs used in these experiments were prepared as stock solutions in DMSO.” left out
as §4

In another experiment the target is T1, PPAR-γ (Homo sapiens, UniProt P37231).
T1 sequence (P37231 1-505): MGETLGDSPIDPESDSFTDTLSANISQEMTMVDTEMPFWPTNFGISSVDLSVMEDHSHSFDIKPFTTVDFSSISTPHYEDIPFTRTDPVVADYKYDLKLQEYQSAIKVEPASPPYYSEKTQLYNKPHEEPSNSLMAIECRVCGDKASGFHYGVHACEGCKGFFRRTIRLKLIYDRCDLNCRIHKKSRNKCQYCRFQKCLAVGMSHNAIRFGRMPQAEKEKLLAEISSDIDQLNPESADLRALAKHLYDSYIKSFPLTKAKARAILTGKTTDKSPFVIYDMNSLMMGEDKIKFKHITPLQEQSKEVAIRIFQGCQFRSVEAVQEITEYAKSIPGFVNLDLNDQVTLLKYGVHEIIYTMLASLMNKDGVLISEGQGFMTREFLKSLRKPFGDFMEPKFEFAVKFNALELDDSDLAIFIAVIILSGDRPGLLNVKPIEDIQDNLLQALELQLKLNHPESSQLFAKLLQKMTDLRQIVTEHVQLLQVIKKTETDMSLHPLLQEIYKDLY
Put plainly: Transactivation of over-expressed PPAR-γ, luciferase reporter in porcine RPE cells. Set-up: a plasmid expressing each of the full-length PPAR isoforms; host or cells: primary porcine RPE cells. The following applies: for inhibition of PPAR-γ transactivation induced by TGZ: NBX 20 μM; for transactivation of over-expressed PPAR-γ by the compound alone: vs DMSO control, A2E 20 μM, NBX increasing concentrations. Type of experiment: cell-based, pig. The procedure:
Then the effects of A2E on the endogenous PPAR transactivation in porcine RPE cells were investigated by means of a luciferase assay. […] The level of transactivation of PPAR-α, -β/δ, or -γ isoforms by A2E was determined by co-transfection of porcine RPE cells with a plasmid expressing each of the full-length PPAR isoforms and a plasmid expressing luciferase under the control of the PPAR response element. […] All usual chemicals, primers, and HX531 were from Sigma (St. Louis, MO, USA). Reagents for cell culture, transfection and quantitative RT-PCR were from Thermo Fisher Scientific (Waltham, MA, USA). RNA extraction NucleoSpin® RNA kit was from Macherey Nagel (Düren, Germany). ECL prime and PVDF membrane were from Amersham GE Healthcare (Buckinghamshire, UK). Primary antibodies against the following proteins were used: GAPDH (Santa Cruz Biotechnology, Inc, Dallas, TX, USA); pAKT, AKT, pERK and ERK (Cell Signaling, Danvers, MA, USA). Secondary antibodies were from Jackson ImmunoResearch (Cambridgeshire, UK). […] Cignal Pathway Reporter Assay Kits were from QIAGEN (Frederick, MD, USA). The Dual-Luciferase Reporter Assay System was purchased from Promega (Madison, WI, USA). pcDNA 3.1 (+)-PPARα and pcDNA 3.1 (+)-PPARβ/δ (pig sequence) were purchased from Genscript (Piscataway, NJ, USA). pCMV6-XL4-PPARγ (human sequence) was purchased from Origene (Rockville, MD, USA).
as §2

Consider `CC(/C=C/C=C(C)/C=C/C(=O)O)=C\C=C\C=C(C)\C=C\C=C(C)\C=C\C(=O)O` (stereo in doubt) [norbixin, 9’-cis-norbixin], for which, in the experiment with PPAR (A2E 20 μM, NBX 20 μM, HX531 5 μM (HX531 effect not significant)), the “inhibition of endogenous PPAR transactivation induced by A2E” value is given as 52%. For the same molecule, in the experiment with PPAR (NBX 20 μM, no A2E), the “effect of the compound alone on endogenous PPAR transactivation” value is given as “did not inhibit”. In addition, in the experiment with AP-1 (A2E 20 μM, NBX 20 μM, HX531 5 μM), the “inhibition of AP-1 transactivation induced by A2E” value is 82%. The “inhibition of IL-8 mRNA expression induced by A2E” value in the experiment with IL-8 (NBX 20 μM + A2E 30 μM) was “approximately 23 fold”. In the experiment on CCL2 (NBX 20 μM + A2E 30 μM), the “effect on CCL2 mRNA expression induced by A2E” value was “further increased”. Moreover, the “effect on VEGF mRNA expression induced by A2E” value with VEGF (NBX 20 μM with A2E 30 μM, MK886 1 μM, GSK3787 1 μM, T007907 10 μM, alone or as mixture, with A2E 20 μM) is “significantly inhibited”. Moreover, in the experiment on MMP9 (NBX 20 μM, A2E 30 μM), the “effect on MMP9 mRNA expression in the absence or presence of A2E” value is given as “slightly, but significantly, increased”. Also, the “inhibition of PPAR-γ transactivation induced by TGZ” value against PPAR-γ (1 μM of TGZ) is reported as “partially inhibited”; against PPAR-γ (TGZ 10 μM), “this effect was lost”. Besides, the “effect on over-expressed PPAR-γ transactivation induced by A2E” value at PPAR-γ (A2E 20 μM + NBX 20 μM) was “fully abolished”. Moreover, at PPAR-γ, the “transactivation of over-expressed PPAR-γ by the compound alone” value is “did not demonstrate any transactivation activity”.
On to `CC(C=CC1=C(C)CCCC1(C)C)=CC=CC(C)=Cc1cc(C=CC=C(C)C=CC2=C(C)CCCC2(C)C)cc[n+]1CCO` [A2E, N-retinylidene-N-retinylethanolamine], for which the “minimal required concentration to transactivate all PPARs (endogenous)” value with PPAR (dose-response, porcine RPE cells) came to 20 µM. Moreover, the “effect of the compound alone on AP-1 transactivation” value in the experiment on AP-1 (A2E 20 μM vs DMSO control) is “induced transactivation of AP-1”. For the same molecule, the “effect of the compound alone on IL-8 mRNA expression” value in the experiment on IL-8 (vs DMSO control) is recorded as “induces the expression”. Moreover, in the experiment on CCL2 (A2E 30 μM vs DMSO control), the “effect of the compound alone on CCL2 mRNA expression” value is given as “up-regulated”. Besides, the “enhancement of VEGF mRNA expression by the compound alone” value in the experiment with VEGF (A2E 30 μM vs DMSO control) is given as “approximately 9 fold”. Besides, the “effect of the compound alone on MMP9 mRNA expression” value in the experiment on MMP9 (A2E 30 μM vs DMSO control) is recorded as “reduced the expression”. Besides, the “transactivation of over-expressed PPAR-γ by the compound alone” value at PPAR-γ is “induced the transactivation”.
